# Assay results from patent publication US8552018B2, “Substituted tricyclic compounds as protein kinase inhibitors” (Arizona Board of Regents on behalf of the University of …, priority 2003, dated 2013).
# Like-named read-outs stand apart in the source and are kept apart here.
# Columns and labels:
# aurora-2 kinase = target: T1, aurora-2 kinase (Homo sapiens, UniProt O14965); assay: Aurora-2 kinase inhibition assay (Kinase-Glo); assay type: biochemical; details: for degree of inhibition of aurora-2 kinase activity (rank among tested compounds): 20 μM, FIG. 10; for IC50: aurora-2 kinase, FIG. 11
# T1 construct: purchased Imgenex, San Diego, Calif; host or cells: sf9 cells
# T1 sequence (O14965 1-403): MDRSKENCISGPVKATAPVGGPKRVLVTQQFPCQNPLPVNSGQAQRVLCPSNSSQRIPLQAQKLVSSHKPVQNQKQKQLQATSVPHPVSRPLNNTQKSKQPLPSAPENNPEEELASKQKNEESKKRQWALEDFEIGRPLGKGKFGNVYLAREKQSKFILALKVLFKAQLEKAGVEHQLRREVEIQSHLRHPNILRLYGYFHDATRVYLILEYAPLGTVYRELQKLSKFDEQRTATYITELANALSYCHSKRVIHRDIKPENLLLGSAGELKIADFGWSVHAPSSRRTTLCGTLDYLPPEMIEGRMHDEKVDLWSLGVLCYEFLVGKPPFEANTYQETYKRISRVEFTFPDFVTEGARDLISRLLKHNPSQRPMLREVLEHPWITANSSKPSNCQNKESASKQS
# Method: In this assay kinase activity is determined by quantifying the amount of ATP remaining in solution following the kinase reaction by measuring the light units (LU) produced by luciferase using a luminometer. Percent inhibition was determined for individual compounds by comparing luminometer readings of drug-treated reactions to controls containing no drug (DMSO control) and no Aurora-2 enzyme (ATP control) in the following equation: […]
# In a 50 μl reaction, recombinant aurora-2 kinase produced in sf9 cells (Imgenex, San Diego, Calif.) was incubated at 30° C. for two hours with 62.5 μM Kemptide (Calbiochem, San Diego, Calif.), 3 μM ATP (Invitrogen, Carlsbad, Calif.) and kinase reaction buffer (40 mM Tris-HCl, 10 mM MgCl2 and 0.1 μg/μl bovine serum albumin (BSA)). This reaction was carried out in the presence of drug substances, which had been previously diluted to desired concentrations in DMSO. After incubation, 50 μl of Kinase-Glo® (Promega, Inc., Madison, Wis.) solution was added to each reaction mixture and allowed to equilibrate for 10 minutes at room temperature. Kinase-Glo solution contains luciferase enzyme and luciferin, which react with ATP to produce light. Kinase activity is determined by quantifying the amount of ATP remaining in solution following the kinase reaction by measuring the light units (LU) produced by luciferase using a luminometer (PerkinElmer, Boston, Mass.).
# [1] = tested on: LNCaP prostate carcinoma cells; assay: Apoptosis assays (morphology, PARP cleavage immunoblot); assay type: cell-based; details: 48 hours
# Method: Induction of apoptosis by MP-470 (Compound III-1-3) was further evaluated in LNCaP prostate carcinoma cells using three different assays. First, cells were treated with MP-470 at a variety of concentrations, with or without addition of Tarceva® (erlotinib) for 48 hours. Cells were then examined for the morphological characteristics of apoptosis (membrane blebbing, nuclear fragmentation, etc.) and scored according to a binary scale (apoptotic versus non-apoptotic).
# As a more quantifiable means of determining apoptosis induction, cells were also lysed and total protein was used in an immunoblot assay for poly-[ADP ribose] polymerase (PARP) cleavage, a hallmark of apoptosis.
# [2] = tested on: c-Met autophosphorylation in NIH 3T3 cells; assay: Immunoblot for phospho-Met; assay type: cell-based
# Method: MP-470 (Compound III-1-3) has inhibitory effects on a number of receptor tyrosine kinases. In order to evaluate these effects at the cellular level, immunoblot analysis was performed on lysates from cells treated with MP470, with or without the addition of the EGFR inhibitor Tarceva®. Lysates were assayed for general tyrosine kinase activity, as well as the specific phosphorylation of c-Met and Akt. Briefly, NIH 3T3 cells were pretreated with drugs as indicated for 4 hours, then treated with pervanadate for a further 30 minutes. Immunoblot detection was carried out with antibodies for phosphotyrosine, phospho-Met and phospho-Akt (S473), as well as total c-Met and Akt. Beta-actin was used as a loading control.
# [3] = tested on: SF-767 glioblastoma multiformes cells; assay: MTS cell death assay; assay type: cell-based
# Method: To evaluate the ability of MP470 to enhance clinical therapy we used MP470 in combination with ionizing radiation on culture cancer cells. SF-767 glioblastoma multiformes cells were treated with 1 μM MP470, 800c Gy IR, or a combination of both.
# PDGFRα(V561D)(h) = PDGFRα(V561D)(h) (Homo sapiens, UniProt P16234, V561D); assay: Kinase profile screen; assay type: biochemical; details: 1 uM
# Chain of PDGFRα(V561D)(h) (P16234 24-1089 V561D): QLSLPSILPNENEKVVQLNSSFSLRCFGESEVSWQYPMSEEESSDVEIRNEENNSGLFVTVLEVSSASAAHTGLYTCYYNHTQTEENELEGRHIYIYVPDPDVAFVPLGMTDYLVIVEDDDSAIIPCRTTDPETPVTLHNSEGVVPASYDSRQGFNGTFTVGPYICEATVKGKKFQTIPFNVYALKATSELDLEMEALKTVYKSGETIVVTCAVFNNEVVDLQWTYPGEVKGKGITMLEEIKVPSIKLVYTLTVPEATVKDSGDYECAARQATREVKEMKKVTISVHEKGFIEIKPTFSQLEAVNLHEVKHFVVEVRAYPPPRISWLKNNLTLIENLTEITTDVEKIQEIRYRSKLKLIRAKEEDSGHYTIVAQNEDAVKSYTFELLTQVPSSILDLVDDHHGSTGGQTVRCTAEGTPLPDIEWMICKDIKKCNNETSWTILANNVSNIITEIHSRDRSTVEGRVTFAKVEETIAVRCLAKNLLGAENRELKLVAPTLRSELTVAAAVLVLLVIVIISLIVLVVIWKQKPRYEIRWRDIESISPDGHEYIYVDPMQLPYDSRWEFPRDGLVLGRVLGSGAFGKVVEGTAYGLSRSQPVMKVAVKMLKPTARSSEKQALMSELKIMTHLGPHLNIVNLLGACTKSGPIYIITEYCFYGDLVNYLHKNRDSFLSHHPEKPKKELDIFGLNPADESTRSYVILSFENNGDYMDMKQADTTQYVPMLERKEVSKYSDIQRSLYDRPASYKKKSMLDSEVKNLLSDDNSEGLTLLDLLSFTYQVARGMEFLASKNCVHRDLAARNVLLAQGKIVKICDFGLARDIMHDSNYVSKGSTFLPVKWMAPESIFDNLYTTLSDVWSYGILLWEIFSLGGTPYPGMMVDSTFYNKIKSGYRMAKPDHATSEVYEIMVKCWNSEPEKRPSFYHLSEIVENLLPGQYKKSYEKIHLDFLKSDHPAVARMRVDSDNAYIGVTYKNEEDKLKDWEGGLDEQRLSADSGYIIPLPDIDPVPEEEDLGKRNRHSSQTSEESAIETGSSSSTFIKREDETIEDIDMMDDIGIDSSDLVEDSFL
# Method: (§1) In order to determine the specificity and potential alternative targets for MP470, kinase profile screen were performed utilizing the KinaseProfiler™ Screen (Upstate Corp) and Select Screen™ kinase profiling (Invitrogen). Between the two screens, 53 different kinases were tested, representing a broad proportion of the human kinome. MP470 was screened at a concentration of 1 μM against both wildtype and mutant kinases.
# Flt3(D835Y)(h) = Flt3(D835Y)(h) (Homo sapiens, UniProt P36888, D835Y); assay: Kinase profile screen; assay type: biochemical; details: 1 uM
# Method: as §1
# cKit(D816V)(h) = cKit(D816V)(h) (Homo sapiens, UniProt P10721, D816V); assay: Kinase profile screen; assay type: biochemical; details: 1 uM
# Chain of cKit(D816V)(h) (P10721 26-976 D816V): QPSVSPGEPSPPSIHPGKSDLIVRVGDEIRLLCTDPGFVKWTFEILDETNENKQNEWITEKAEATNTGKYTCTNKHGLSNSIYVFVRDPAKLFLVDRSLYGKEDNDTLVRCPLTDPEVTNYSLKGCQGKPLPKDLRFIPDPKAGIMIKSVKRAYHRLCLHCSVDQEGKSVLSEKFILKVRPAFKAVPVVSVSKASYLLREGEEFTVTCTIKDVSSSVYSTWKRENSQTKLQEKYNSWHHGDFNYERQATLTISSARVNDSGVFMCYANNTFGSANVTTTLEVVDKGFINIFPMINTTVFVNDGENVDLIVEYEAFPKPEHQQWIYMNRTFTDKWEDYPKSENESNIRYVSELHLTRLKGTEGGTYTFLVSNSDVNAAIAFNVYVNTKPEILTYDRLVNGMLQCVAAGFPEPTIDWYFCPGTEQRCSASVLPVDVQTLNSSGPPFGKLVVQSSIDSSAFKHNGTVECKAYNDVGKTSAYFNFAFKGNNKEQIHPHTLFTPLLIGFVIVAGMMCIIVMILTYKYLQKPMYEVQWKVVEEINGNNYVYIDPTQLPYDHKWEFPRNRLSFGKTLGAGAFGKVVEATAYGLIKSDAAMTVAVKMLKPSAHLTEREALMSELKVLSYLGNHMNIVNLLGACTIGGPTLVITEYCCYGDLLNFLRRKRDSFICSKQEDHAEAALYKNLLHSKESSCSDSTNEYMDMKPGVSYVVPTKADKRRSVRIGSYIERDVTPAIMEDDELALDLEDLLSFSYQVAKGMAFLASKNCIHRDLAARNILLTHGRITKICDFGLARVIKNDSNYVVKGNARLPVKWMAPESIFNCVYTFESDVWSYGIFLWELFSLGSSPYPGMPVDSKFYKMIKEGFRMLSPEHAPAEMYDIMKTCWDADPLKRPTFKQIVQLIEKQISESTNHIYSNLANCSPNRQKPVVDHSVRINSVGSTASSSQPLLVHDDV
# Method: as §1
# cKit(V560G)(h) = cKit(V560G)(h) (Homo sapiens, UniProt P10721, V560G); assay: Kinase profile screen; assay type: biochemical; details: 1 uM
# Chain of cKit(V560G)(h) (P10721 26-976 V560G): as the sequence (P10721 26-976 D816V) above, with V535G, V791D counted along it
# Method: as §1
# PDGFRα(D842V)(h) = PDGFRα(D842V)(h) (Homo sapiens, UniProt P16234, D842V); assay: Kinase profile screen; assay type: biochemical; details: 1 uM
# Chain of PDGFRα(D842V)(h) (P16234 24-1089 D842V): as the sequence (P16234 24-1089 V561D) above, with D538V, D819V counted along it
# Method: as §1
# cKit(V654A)(h) = cKit(V654A)(h) (Homo sapiens, UniProt P10721, V654A); assay: Kinase profile screen; assay type: biochemical; details: 1 uM
# Chain of cKit(V654A)(h) (P10721 26-976 V654A): as the sequence (P10721 26-976 D816V) above, with V629A, V791D counted along it
# Method: as §1
# [4] = tested on: Panc-1 pancreatic cancer cells; assay: Apoptosis assay (Annexin V or TUNEL); assay type: cell-based; details: Panc1, 10 μM
# Method: (§2) Induction of apoptosis in cancer cells is a common mechanism of action for anti-cancer agents. To determine the role of MP470 in apoptosis, tumor cells were incubated with either compound and analyzed for apoptosis using Annexin V or TUNEL assays. […] In MiaPaCa-2 cells, MP470 at […] induced 81.4% apoptosis, while at 1 μM it induced 71% apoptosis. In Panc1 cells, MP470 at 10 μM induced over a 3-fold increase in apoptotic cells compared with non-treated cells.
# [5] = tested on: MiaPaCa-2 pancreatic cancer cells; assay: Apoptosis assay (Annexin V or TUNEL); assay type: cell-based
# Method: as §2
aurora-2 kinase inhibitory activity (in words) (aurora-2 kinase),degree of inhibition of aurora-2 kinase activity (rank among tested compounds) (aurora-2 kinase),IC50 (aurora-2 kinase) [nM],aurora-2 kinase inhibitory activity (in words) (aurora-2 kinase; listed as II-2-6),SMILES,apoptosis induction ([1]; MP-470 alone),apoptosis induction ([1]; MP-470 in the presence of erlotinib),"activating autophosphorylation of c-Met ([2]; NIH 3T3, 4 hours, agent alone)","activating autophosphorylation of c-Met ([2]; NIH 3T3, MP-470 in combination with Tarceva®)","cell death (MTS) ([3]; SF-767, 1 μM MP470 alone)","increase of cell death over either agent alone ([3]; SF-767, 1 μM MP470 in combination with 800c Gy IR)",activity against mutant kinase (PDGFRα(V561D)(h)),activity against mutant kinase (Flt3(D835Y)(h)),activity against mutant kinase (cKit(D816V)(h)),activity against mutant kinase (cKit(V560G)(h)),activity against mutant kinase (PDGFRα(D842V)(h)),activity against mutant kinase (cKit(V654A)(h)),increase in apoptotic cells compared with non-treated cells [4] [fold],"apoptosis ([5]; MiaPaCa-2, 1 μM) [%]","apoptosis ([5]; MiaPaCa-2, 100 μM) [%]"
particularly effective inhibitors,second highest inhibition,4700,,"COc1cc2ncnc(N3CCN(C(=S)Nc4ccc(S(=O)(=O)Nc5ncccn5)cc4)CC3)c2cc1OC [HPK16, 4-(6,7-Dimethoxy-quinazolin-4-yl)-piperazine-1-carbothioic acid [4-(pyrimidin-2-ylsulfamoly)-phenyl]-amide]",,,,,,,,,,,,,,,
,,,,"S=C(NCc1ccc2c(c1)OCO2)N1CCN(c2ncnc3c2oc2ccccc23)CC1 [HPK56, 4-Benzo[4,5]furo[3,2-d]pyrimidin-4-yl-piperazine-1-carbothioic acid (benzo[1,3]dioxol-5-ylmethyl)-amide]",dose-dependent increase in apoptosis,enhanced,reduced,reduced,induced cell death,more than 2 fold,activity,activity,activity,activity,activity,activity,> 3,71,81.4
particularly effective inhibitors,highest inhibition,900,low nanomolar,"COc1cc2[nH]c3ncnc(N4CCN(C(=S)Nc5ccc(S(=O)(=O)Nc6ncccn6)cc5)CC4)c3c2cc1OC [HPK62, 4-(6,7-Dimethoxy-9H-1,3,9-triaza-fluoren-4-yl)-piperazine-1-carbothioic acid [4-(pyrimidin-2-ylsulfamoyl)-phenyl]-amide]",,,,,,,,,,,,,,,
